Earlier results, collected in patent US20250120985A1, “METHOD OF TREATING DIABETIC MACULAR EDEMA” (Oculis Operations Sàrl, priority 2023, published 2025).
In brackets after ≈: the same amount, converted by molar mass.

Conditions: 25° C.

SMILES	solubility in pure water
OC[C@H]1O[C@@H]2O[C@H]3[C@H](O)[C@@H](O)[C@@H](O[C@H]4[C@H](O)[C@@H](O)[C@@H](O[C@H]5[C@H](O)[C@@H](O)[C@@H](O[C@H]6[C@H](O)[C@@H](O)[C@@H](O[C@H]7[C@H](O)[C@@H](O)[C@@H](O[C@H]8[C@H](O)[C@@H](O)[C@@H](O[C@H]9[C@H](O)[C@@H](O)[C@@H](O[C@H]1[C@H](O)[C@H]2O)O[C@@H]9CO)O[C@@H]8CO)O[C@@H]7CO)O[C@@H]6CO)O[C@@H]5CO)O[C@@H]4CO)O[C@@H]3CO [γ-cyclodextrin]	249.2 ± 0.2 mg/mL (≈ 192 mM)
OC[C@H]1O[C@@H]2O[C@H]3[C@H](O)[C@@H](O)[C@@H](O[C@H]4[C@H](O)[C@@H](O)[C@@H](O[C@H]5[C@H](O)[C@@H](O)[C@@H](O[C@H]6[C@H](O)[C@@H](O)[C@@H](O[C@H]7[C@H](O)[C@@H](O)[C@@H](O[C@H]1[C@H](O)[C@H]2O)O[C@@H]7CO)O[C@@H]6CO)O[C@@H]5CO)O[C@@H]4CO)O[C@@H]3CO [α-cyclodextrin]	129.5 ± 0.7 mg/mL (≈ 133 mM)
